US6124269A, “2-Halo-6-O-substituted ketolide derivatives” (priority 1998, dated 2000)
≈ marks a conversion by molar mass, not a printed value.

Key:
Format in all cases: cell-based
[1] = test system: Streptococcus pneumoniae ATCC 6303; assay: In vitro agar dilution MIC, organism code XX; settings: unit assumed
Experimental: (§1) Representative compounds of the present invention were assayed in vitro for antibacterial activity as follows: Twelve petri dishes containing successive aqueous dilutions of the test compound mixed with 10 mL of sterilized Brain Heart Infusion (BHI) agar (Difco 0418-01-5) were prepared. Each plate was inoculated with 1:100 (or 1:10 for slow-growing strains, such as Micrococcus and Streptococcus) dilutions of up to 32 different microorganisms, using a Steers replicator block. The inoculated plates were incubated at 35-37° C. for 20 to 24 hours. In addition, a control plate, using BHI agar containing no test compound, was prepared and incubated at the beginning and end of each test.
(§2) An additional plate containing a compound having known susceptibility patterns for the organisms being tested and belonging to the same antibiotic class as the test compound was also prepared and incubated as a further control, as well as to provide test-to-test comparability.
(§3) After incubation, each plate was visually inspected. The minimum inhibitory concentration (MIC) was defined as the lowest concentration of drug yielding no growth, a slight haze, or sparsely isolated colonies on the inoculum spot as compared to the growth control.

[2] = test system: Staphylococcus aureus ATCC 6538P; assay: In vitro agar dilution MIC, organism code AA; settings: unit assumed
Experimental: as §1, §2, §3

[3] = test system: Staphylococcus aureus NCTC10649M; assay: In vitro agar dilution MIC, organism code EE; settings: Table 1B, unit assumed
Experimental: as §1, §2, §3

[4] = test system: Micrococcus luteus ATCC 4698; assay: In vitro agar dilution MIC, organism code PP; settings: Table 1B, in µg/mL (unit assumed)
Experimental: as §1, §2, §3

[5] = test system: Staphylococcus aureus A-5278; assay: In vitro agar dilution MIC, organism code CC; settings: unit assumed
Experimental: as §1, §2, §3

[6] = test system: Enterococcus faecium ATCC 8043; assay: In vitro agar dilution MIC, organism code II; settings: Table 1B, unit assumed
Experimental: as §1, §2, §3

Escherichia coli DC-2 = assay: In vitro agar dilution MIC, organism code SS; settings: Table 1B, unit assumed
Experimental: as §1, §2, §3

[7] = test system: Streptococcus pneumoniae 5649; assay: In vitro agar dilution MIC, organism code ZZA; settings: unit assumed
Experimental: as §1, §2, §3

[8] = test system: Staphylococcus epidermidis 3519; assay: In vitro agar dilution MIC, organism code HH; settings: Table 1B, in µg/mL (unit assumed)
Experimental: as §1, §2, §3

[9] = test system: Streptococcus pneumoniae 5979; assay: In vitro agar dilution MIC, organism code ZZ; settings: unit assumed
Experimental: as §1, §2, §3

[10] = test system: Streptococcus pneumoniae GYR 1171; assay: In vitro agar dilution MIC, organism code YY; settings: Table 1B, unit assumed
Experimental: as §1, §2, §3

[11] = test system: Streptococcus pyogenes 930; assay: In vitro agar dilution MIC, organism code MM; settings: unit assumed
Experimental: as §1, §2, §3

[12] = test system: Nocardia asteroides ATCC 9970; assay: In vitro agar dilution MIC, organism code VV; settings: Table 1B, in µg/mL (unit assumed)
Experimental: as §1
as §2, with “comparability. Erythromycin A was used for this purpose.” for “comparability.”
as §3

[13] = test system: Mycobacterium smegmatis ATCC 114; assay: In vitro agar dilution MIC, organism code UU; settings: Table 1B, in µg/mL (unit assumed)
Experimental: as §1, §2, §3

[14] = test system: Streptococcus agalactiae CMX 508; assay: In vitro agar dilution MIC, organism code KK; settings: Table 1B, unit assumed
Experimental: as §1, §2, §3

[15] = test system: Staphylococcus aureus 1775; assay: In vitro agar dilution MIC, organism code GG; settings: Table 1B, unit assumed
Experimental: as §1, §2, §3

[16] = test system: Streptococcus pyogenes PIU 2548; assay: In vitro agar dilution MIC, organism code NN; settings: Table 1B, unit assumed
Experimental: as §1, §2, §3

Candida albicans CCH 442 = assay: In vitro agar dilution MIC, organism code TT; settings: Table 1B, unit assumed
Experimental: as §1, §2, §3

[17] = test system: Staphylococcus aureus A5177; assay: In vitro agar dilution MIC, organism code BB; settings: in µg/mL (unit assumed)
Experimental: as §1, §2, §3

[18] = test system: Staphylococcus aureus CMX 642A; assay: In vitro agar dilution MIC, organism code DD; settings: Table 1B, unit assumed
Experimental: as §1, §2, §3

[19] = test system: Staphylococcus aureus CMX 553; assay: In vitro agar dilution MIC, organism code FF; settings: Table 1B, unit assumed
Experimental: as §1, §2, §3

[20] = test system: Micrococcus luteus ATCC 9341; assay: In vitro agar dilution MIC, organism code OO; settings: Table 1B, unit assumed
Experimental: as §1, §2, §3

[21] = test system: Streptococcus pyogenes EES61; assay: In vitro agar dilution MIC, organism code LL; settings: unit assumed
Experimental: as §1, §2, §3

[22] = test system: Streptococcus bovis A-5169; assay: In vitro agar dilution MIC, organism code JJ; settings: Table 1B, unit assumed
Experimental: as §1, §2, §3

[23] = test system: Haemophilis influenzae DILL AMP R; assay: In vitro agar dilution MIC, organism code WW; settings: unit assumed
Experimental: as §1, §2, §3

Escherichia coli SS = assay: In vitro agar dilution MIC, organism code RR; settings: Table 1B, in µg/mL (unit assumed)
Experimental: as §1, §2, §3

Escherichia coli JUHL = assay: In vitro agar dilution MIC, organism code QQ; settings: Table 1B, in µg/mL (unit assumed)
Experimental: as §1, §2, §3

SMILES | MIC ([2]; Table 1B) [µg/mL] | MIC [3] [µg/mL] | MIC [4] | MIC ([5]; Table 1B) [µg/mL] | MIC [6] [µg/mL] | MIC (Escherichia coli DC-2) [µg/mL] | MIC ([7]; Table 1B) [µg/mL] | MIC [8] | MIC [10] [µg/mL] | MIC ([11]; Table 1B) [µg/mL] | MIC [12] | MIC [13] | MIC [14] [µg/mL] | MIC [15] [µg/mL] | MIC [16] [µg/mL] | MIC (Candida albicans CCH 442) [µg/mL] | MIC ([17]; Table 1B) | MIC [18] [µg/mL] | MIC [19] [µg/mL] | MIC [20] [µg/mL] | also measured
CC[C@H]1OC(=O)C(C)(Br)C(=O)[C@H](C)[C@@H](O[C@@H]2O[C@H](C)C[C@H](N(C)C)[C@H]2O)[C@](C)(OC)C[C@@H](C)C2=NCCN3C(=O)O[C@@]1(C)[C@H]3[C@H]2C (stereo partly shown) [Example 3] | 0.39 (≈ 0.544 µM) | 0.39 (≈ 0.544 µM) | 0.39 | > 100 | 0.1 (≈ 0.14 µM) | > 100 | 2 (≈ 2.79 µM) | 0.39 | 0.125 (≈ 0.174 µM) | > 100 | 0.39 | 1.56 | 0.2 (≈ 0.279 µM) | > 100 | 0.39 (≈ 0.544 µM) | > 100 | 0.39 | 0.39 (≈ 0.544 µM) | 0.39 (≈ 0.544 µM) | 0.05 (≈ 0.0698 µM) | MIC ([1]; Table 1C): 0.25 µg/mL (≈ 0.349 µM); MIC ([2]; Table 1C): 0.78 µg/mL (≈ 1.09 µM); MIC ([5]; Table 1C): > 100 µg/mL; MIC ([7]; Table 1C): 1 µg/mL (≈ 1.4 µM); MIC ([9]; Table 1C): > 128 µg/mL; MIC ([11]; Table 1C): 128 µg/mL (≈ 179 µM); MIC ([17]; Table 1C): 0.78; MIC ([21]; Table 1B): 0.05 µg/mL (≈ 0.0698 µM); MIC ([21]; Table 1C): < 0.125 µg/mL; MIC [22]: 0.2 µg/mL (≈ 0.279 µM); MIC ([23]; Table 1B): 8 µg/mL (≈ 11.2 µM); MIC ([23]; Table 1C): 8 µg/mL (≈ 11.2 µM); MIC (Escherichia coli SS): 0.39; MIC (Escherichia coli JUHL): > 100
CC[C@H]1OC(=O)[C@@](C)(F)C(=O)[C@H](C)[C@@H](O[C@@H]2O[C@H](C)C[C@H](N(C)C)[C@H]2O)[C@](C)(OC/C=C/c2cnc3ccc([N+](=O)[O-])cc3c2)C[C@@H](C)C(=O)[C@H](C)[C@H]2NC(=O)O[C@@]21C [Example 6] | 0.05 (≈ 0.0603 µM) | 0.1 (≈ 0.121 µM) | 0.05 | 100 (≈ 121 µM) | 0.05 (≈ 0.0603 µM) | 25 (≈ 30.2 µM) | 0.125 (≈ 0.151 µM) | 0.05 | ≤ 0.004 | 0.39 (≈ 0.47 µM) | 0.02 | 0.1 | 0.02 (≈ 0.0241 µM) | 100 (≈ 121 µM) | 0.05 (≈ 0.0603 µM) | 100 (≈ 121 µM) | 0.05 | 0.05 (≈ 0.0603 µM) | 0.05 (≈ 0.0603 µM) | 0.01 (≈ 0.0121 µM) | MIC ([1]; Table 1B): ≤ 0.004 µg/mL; MIC ([9]; Table 1B): 1 µg/mL (≈ 1.21 µM); MIC ([21]; Table 1B): ≤ 0.005 µg/mL; MIC [22]: 0.01 µg/mL (≈ 0.0121 µM); MIC ([23]; Table 1B): 2 µg/mL (≈ 2.41 µM); MIC (Escherichia coli SS): 0.05; MIC (Escherichia coli JUHL): 25
CC[C@H]1OC(=O)[C@@](C)(F)C(=O)[C@H](C)[C@@H](O[C@@H]2O[C@H](C)C[C@H](N(C)C)[C@H]2O)[C@](C)(OC/C=C/c2cnc3ncccc3c2)C[C@@H](C)C(=O)[C@H](C)[C@H]2NC(=O)O[C@@]21C [Example 11] | 0.05 (≈ 0.0637 µM) | 0.05 (≈ 0.0637 µM) | 0.05 | > 100 | 0.05 (≈ 0.0637 µM) | 12.5 (≈ 15.9 µM) | 0.25 (≈ 0.319 µM) | 0.05 | ≤ 0.004 | 0.1 (≈ 0.127 µM) | 0.01 | 0.78 | 0.01 (≈ 0.0127 µM) | 100 (≈ 127 µM) | 0.01 (≈ 0.0127 µM) | > 100 | 0.05 | 0.05 (≈ 0.0637 µM) | 0.05 (≈ 0.0637 µM) | 0.01 (≈ 0.0127 µM) | MIC ([1]; Table 1B): ≤ 0.004 µg/mL; MIC ([9]; Table 1B): 0.125 µg/mL (≈ 0.159 µM); MIC ([21]; Table 1B): 0.39 µg/mL (≈ 0.497 µM); MIC [22]: 0.01 µg/mL (≈ 0.0127 µM); MIC ([23]; Table 1B): 2 µg/mL (≈ 2.55 µM); MIC (Escherichia coli SS): 0.2; MIC (Escherichia coli JUHL): 25
